From ChEMBL document CHEMBL1144166 (Bioorg Med Chem, 2008)
“And” between values parts separate entries of the source, which are not always exact repeats. Equal values may be shown once.

Tests used:
Papio [1] = assay: Inhibition of baboon liver mitochondrial monoamine oxidase B at 1000 uM by spectrophotometry
Adenosine receptor A2a = Adenosine receptor A2a (Rattus norvegicus, UniProt P30543)
Description: Displacement of [3H]NECA from Sprague-Dawley rat adenosine A2A receptor by scintillation counting

Papio [2] = assay: Inhibition of baboon liver mitochondrial monoamine oxidase B at 30 uM by spectrophotometry
[3] = Inhibition of baboon liver mitochondrial monoamine oxidase B using 30 to 120 uM of MMTP by spectrophotometry; design: species or system Papio
[4] = Inhibition of baboon liver mitochondrial monoamine oxidase B using 50 uM of MMTP by spectrophotometry; design: species or system Papio

Sequence of Adenosine receptor A2a (P30543 whole entry): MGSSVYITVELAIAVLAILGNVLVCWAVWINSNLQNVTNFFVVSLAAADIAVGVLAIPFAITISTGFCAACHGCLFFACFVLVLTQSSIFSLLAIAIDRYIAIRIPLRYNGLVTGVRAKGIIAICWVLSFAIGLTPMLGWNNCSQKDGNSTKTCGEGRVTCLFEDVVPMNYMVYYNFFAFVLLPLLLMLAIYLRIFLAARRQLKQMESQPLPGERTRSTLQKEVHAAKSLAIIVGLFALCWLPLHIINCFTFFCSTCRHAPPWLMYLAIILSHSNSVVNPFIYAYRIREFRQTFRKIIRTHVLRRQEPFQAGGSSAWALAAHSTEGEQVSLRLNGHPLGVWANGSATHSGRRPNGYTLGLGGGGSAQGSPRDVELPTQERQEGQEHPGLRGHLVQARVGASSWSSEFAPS

Compound	inhibition (Papio [1])	Ki (Adenosine receptor A2a)	inhibition (Papio [2])	Ki [3]	IC50 [4]	Ki [4]
Cn1c(=O)c2c(nc(-c3cccc(C(F)(F)F)c3)n2C)n(C)c1=O	24%					
CCn1c(=O)c2c(nc(/C=C/C=C/c3ccccc3)n2C)n(CC)c1=O		2.74 nM	32.7%			
Cn1c(=O)c2c(nc(-c3ccccc3)n2C)n(C)c1=O				86200 nM		
Cn1c(=O)c2c(nc(/C=C/C=C/c3ccccc3)n2C)n(C)c1=O		153 nM		149 nM	383 nM	221 nM
Cn1c(=O)c2c(nc(/C=C/c3ccc(Cl)c(Cl)c3)n2C)n(C)c1=O				18.9 nM	28.4 nM and 16.4 nM	
Cn1c(=O)c2c(nc(/C=C/C=C/c3cccc(Cl)c3)n2C)n(C)c1=O		104 nM		42.1 nM	96.3 nM	55.6 nM
Cn1c(=O)c2c(nc(Cc3cccc(Cl)c3)n2C)n(C)c1=O				54600 nM		
Cn1c(=O)c2c(nc(Cc3ccccc3)n2C)n(C)c1=O	18%					
CCn1c(=O)c2c(nc(/C=C/C=C/c3ccccc3)n2CC)n(CC)c1=O		7.73 nM	14.6%			
CCn1c(/C=C/C=C/c2ccccc2)nc2c1c(=O)n(C)c(=O)n2C		13.5 nM		1710 nM	2370 nM	1370 nM
Cn1c(=O)c2c(nc(/C=C/C=C/c3cccc(F)c3)n2C)n(C)c1=O		114 nM		46.4 nM	89 nM	51.4 nM
Cn1c(=O)c2c(nc(-c3cccc(Cl)c3)n2C)n(C)c1=O				36000 nM		
Cn1c(=O)c2c(nc(Cc3cccc(C(F)(F)F)c3)n2C)n(C)c1=O				97600 nM		
Cn1c(=O)c2c(nc(/C=C/c3cccc(Br)c3)n2C)n(C)c1=O				62.7 nM	107 nM	61.8 nM
Cn1c(=O)c2c(nc(/C=C/C=C/c3cccc(Br)c3)n2C)n(C)c1=O		59.1 nM		17.2 nM	37.9 nM	21.9 nM
